Assay results taken from patent publication US20190015385A1, “VITAMIN E PHOSPHATE OR ACETATE FOR USE IN THE TREATMENT AND PREVENTION OF BIOFILM INFECTIONS” (priority 2016, published 2019).

How the values were obtained:
[1] = system: P. acnes; test: MIC and MBC, broth microdilution (Example 3); type: cell-based
Experimental: MIC, defined as the lowest concentration capable of inhibiting bacterial growth, was determined using the broth microdilution method according to EUCAST guidelines (http://www.eucast.org/clinical_breakpoints/). In short, a suspension in Brain Heart Infusion Broth ([…], France) was prepared for each bacterial strain, with an optical density of 0.5 McFarland (1.5×10^8 CFU/ml). The P. acnes broth was supplemented with 5% defibrinated sheep blood ([…] Abruzzi, Italy). After a concentration of 10^5 UFC/ml was obtained using appropriate dilutions, each suspension was inoculated in a 96-well microtitre plate containing a two-fold serial dilution of vitamin E acetate (VitE-Ac) and vitamin E phosphate. The controls were performed by inoculating bacterial suspensions in BHI alone. […] After incubation at adequate conditions, MBC was read as the lowest concentration capable of killing 99.9% of the initial inoculum.

[2] = system: P. aeruginosa; test: Anti-adhesion activity on coated titanium disks, CFU count (Example 3); type: cell-based, Pseudomonas aeruginosa
Experimental: (§1) Sterile disks of sandblasted titanium with a diameter of 25 mm and a thickness of 5 mm (Adler Ortho, Cormano, Italy) were used as the substrate for the formation of biofilms. The disks were coated with sub-inhibitory concentrations of vitamin E acetate (5 mg/cm^2) or vitamin E phosphate (5 mg/cm^2). The concentrations were selected based on the MIC results. Uncoated disks were used as negative controls. The anti-adhesion activity of vitamin E was assessed against a representative strain for each species. An overnight bacteria culture was resuspended in Brain Heart Infusion Broth (BHI; Biomérieux) at a density of 1.0×10^7 CFU/ml for each strain, and 400 microliters of microbial suspension were inoculated on coated and uncoated disks. The test was performed in triplicate for each strain. After 30, 60 and 120 minutes of incubation, the disks were washed twice with a sterile saline solution to eliminate non-adherent bacteria. The disks were then immersed in 5 ml of a 0.1 w/v % dithiothreitol solution (DTT, Sigma-Aldrich, Milan, Italy) and mechanically stirred for 15 minutes at room temperature. Suitable dilutions of the fluids obtained were inoculated on Tryptic Soy Agar (TSA, Merck) and incubated at 37° C. in an aerobic atmosphere for 24 hours for the CFU count.

[3] = system: P. aeruginosa; test: MIC and MBC, broth microdilution (Example 3); type: cell-based, Pseudomonas aeruginosa
Description: (§2) This study used clinically relevant strains isolated from patients with prosthetic joint infections at the Microbiology Laboratory of the IRCCS Galeazzi Orthopaedic institute (Italy). In particular, the following were selected: strains of methicillin-resistant Staphylococcus epidermidis, of methicillin-resistant Staphylococcus aureus and of Pseudomonas aeruginosa. These strains were identified beforehand by means of biochemical assays (VITEK® 2 Compact, bioMérieux, Marcy l'Etoile, France) and stored at −80° C. prior to the analysis. Before beginning the study, all strains were screened to assess their ability to produce biofilms, according to the spectrophotometric assay described by Christensen et al. (J Clin Microbiol 1985; 22: 996-1006).
(§3) The bacteriostatic and bactericidal activity of vitamin E acetate and vitamin E phosphate against the above-mentioned bacterial strains was assessed by measuring the minimum inhibitory concentration (MIC) and the minimum bactericidal concentration (MBC). MIC, defined as the lowest concentration capable of inhibiting bacterial growth, was determined using the broth microdilution method according to EUCAST guidelines (http://www.eucast.org/clinical_breakpoints/).
(§4) In short, a suspension in Brain Heart Infusion Broth (BHI; Biomérieux, Marci l'Etoile, France) was prepared for each bacterial strain, with an optical density of 0.5 McFarland (1.5×10^8 CFU/ml). The P. acnes broth was supplemented with 5% defibrinated sheep blood (Liofilchem, Roseto degli Abruzzi, Italy). After a concentration of 10^5 UFC/ml was obtained using appropriate dilutions, each suspension was inoculated in a 96-well microtitre plate containing a two-fold serial dilution of vitamin E acetate (VitE-Ac) and vitamin E phosphate. The controls were performed by inoculating bacterial suspensions in BHI alone. […] After incubation at adequate conditions, MBC was read as the lowest concentration capable of killing 99.9% of the initial inoculum.

[4] = system: S. epidermidis; test: MIC and MBC, broth microdilution (Example 3); type: cell-based, Staphylococcus epidermidis
Description: as §2, §3, §4

[5] = system: S. aureus; test: Anti-biofilm activity on coated titanium disks, CFU count (Example 3); type: cell-based, Staphylococcus aureus; conditions: 48 hours, 5 mg/cm^2 coating
Experimental: Coated and uncoated titanium disks were prepared as described above and utilized as the substrate for the formation of biofilms. Subsequently, an overnight bacteria culture was resuspended in Brain Heart Infusion Broth (BHI; Biomérieux) at a density of 1.5×10^8 CFU/ml for each strain, and 200 microliters of microbial suspension were inoculated in sterile polystyrene plates with 6 wells containing coated and uncoated disks and 4.8 ml of BHI. The plates were incubated at 37° C. in an aerobic atmosphere for 24 and 48 hours. The test was performed in triplicate for each strain.
At the end of the biofilm incubation time, the disks were treated as described above and the detached cells of the biofilm were inoculated on Tryptic Soy Agar and incubated at 37° C. in an aerobic atmosphere for 24 hours for the CFU count.

[6] = system: S. epidermidis; test: Anti-adhesion activity on coated titanium disks, CFU count (Example 3); type: cell-based, Staphylococcus epidermidis
Experimental: as §1

[7] = system: S. aureus; test: as above; type: cell-based, Staphylococcus aureus
Experimental: as §1

[8] = system: S. aureus; test: MIC and MBC, broth microdilution (Example 3); type: cell-based, Staphylococcus aureus
Description: as §2, §3, §4

[9] = system: S. aureus, S. epidermidis, E. coli, P. aeruginosa and C. albicans (all the strains tested); test: Antimicrobial activity, MIC by broth microdilution (Example 1); type: cell-based; conditions: mean over all strains tested; VitE diluted in hyaluronic acid; read after 24 hours at 37° C.
Experimental: The microbial strains utilized in this study were isolated from clinical samples collected from bone and soft tissue infections. In particular, strains of S. aureus, S. epidermidis, E. coli, P. aeruginosa and C. albicans were utilized. They were identified beforehand by means of biochemical assays and examined to assess their ability to produce biofilms, according to the spectrometric assay described by Christensen et al. (1985). The microorganisms were stored at −80° C. prior to the analysis. Prior to use, the strains were thawed and cultivated in an appropriate culture medium at 37° C. for 24 h. Antimicrobial activity was assessed by determining the minimum inhibitory concentration (MIC). MIC, defined as the lowest concentration of an antimicrobial substance that inhibits the visible growth of a microorganism, was determined using the broth microdilution method, in accordance with the guidelines of the European Committee on Antimicrobial Susceptibility Testing (EUCAST). […] VitE was diluted in hyaluronic acid (HA) at various concentrations, for which the growth checks were performed by inoculating the microbial suspension in BHI+HA. […] The assay was conducted in duplicate and repeated twice.

[10] = system: rats or mice; conditions: rat or mouse; cited from earlier work
[11] = 5 mg/cm^2 coating, 30, 60 and 120 minutes
[12] = 5 mg/cm^2 coating, range over 30, 60 and 120 minutes

Cc1c(C)c2c(c(C)c1OP(=O)([O-])[O-])CC[C@@](C)(CCC[C@H](C)CCC[C@H](C)CCCC(C)C)O2.[Na+].[Na+] [Vitamin E phosphate, α-tocopherol phosphate disodium salt]
bactericidal at the concentrations tested (in words) [1]: bactericidal
MIC range ([1]; 48 hours, broth with 5% defibrinated sheep blood): 1.56 to 6.25 mg/mL
MBC range ([1]; kills 99.9% of the initial inoculum): 31.25 to 50 mg/mL
decrease in adhesion (in words) [2, 11]: significant decrease for all the strains tested, with the exception of the last time period tested for P. aeruginosa
inhibition of adhesion with respect to the control [2, 12]: 7-65%
bactericidal at the concentrations tested (in words) ([3]; P. aeruginosa): not against P. aeruginosa
MIC range ([3]; P. aeruginosa strains, 24 hours): 100 to 200 mg/mL
MBC range ([3]; P. aeruginosa strains, kills 99.9% of the initial inoculum): >200 mg/mL
bactericidal at the concentrations tested (in words) ([4]; S. epidermidis): bactericidal
MIC range ([4]; S. epidermidis strains, 24 hours): 3.13 to 100 mg/mL
MBC range ([4]; S. epidermidis strains, kills 99.9% of the initial inoculum): 25 to 100 mg/mL
biofilm reduction with respect to the controls (in words) [5]: significantly inhibited
decrease in adhesion (in words) [6, 11]: significant decrease
inhibition of adhesion with respect to the control [6, 12]: 84-95%
decrease in adhesion (in words) [7, 11]: significant decrease
inhibition of adhesion with respect to the control [7, 12]: 60-78%
bactericidal at the concentrations tested (in words) ([8]; S. aureus): bactericidal
MIC range ([8]; S. aureus strains, 24 hours): 25 to 100 mg/mL
MBC range ([8]; S. aureus strains, kills 99.9% of the initial inoculum): 25 to 200 mg/mL

vitamin E
mean MIC value [9]: 2.5%
LD50 [10]: 4000 mg of vitamin E/kg
